Source: publication PMC12207590, “Substrate Specificity of the Organic Cation Transporters MATE1 and MATE2K and Functional Overlap with OCT1 and OCT2” (Journal of Medicinal Chemistry, 2025)
Where two headings read alike, the source gives them in different places.

Tests used:
MATE1 = biological target: T1, MATE1 (Homo sapiens, UniProt Q96FL8); experiment: Uptake ratio in MATE1-overexpressing HEK293 cells vs empty vector (2.5 μM, 1 min, HPLC-MS/MS); format: cell-based
T1 sequence (Q96FL8 1-570): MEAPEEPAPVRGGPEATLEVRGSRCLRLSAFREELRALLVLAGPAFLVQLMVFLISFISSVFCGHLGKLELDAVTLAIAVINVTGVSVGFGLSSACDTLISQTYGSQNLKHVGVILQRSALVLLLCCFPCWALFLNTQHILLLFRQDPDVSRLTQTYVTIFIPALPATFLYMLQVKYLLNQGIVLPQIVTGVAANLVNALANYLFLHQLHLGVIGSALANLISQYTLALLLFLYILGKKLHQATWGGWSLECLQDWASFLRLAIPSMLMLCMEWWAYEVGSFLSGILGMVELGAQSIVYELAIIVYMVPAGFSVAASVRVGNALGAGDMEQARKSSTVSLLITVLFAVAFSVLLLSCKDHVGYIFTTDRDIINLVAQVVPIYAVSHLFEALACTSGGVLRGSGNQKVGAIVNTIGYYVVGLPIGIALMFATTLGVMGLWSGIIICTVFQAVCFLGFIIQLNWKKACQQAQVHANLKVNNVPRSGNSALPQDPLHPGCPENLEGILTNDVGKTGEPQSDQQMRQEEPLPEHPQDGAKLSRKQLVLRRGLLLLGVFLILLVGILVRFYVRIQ

MATE2K = MATE2K (Homo sapiens, UniProt Q86VL8); experiment: Uptake ratio in MATE2K-overexpressing HEK293 cells vs empty vector (2.5 μM, 1 min, HPLC-MS/MS); format: cell-based
Sequence of MATE2K (Q86VL8 1-566 isoform Q86VL8-3): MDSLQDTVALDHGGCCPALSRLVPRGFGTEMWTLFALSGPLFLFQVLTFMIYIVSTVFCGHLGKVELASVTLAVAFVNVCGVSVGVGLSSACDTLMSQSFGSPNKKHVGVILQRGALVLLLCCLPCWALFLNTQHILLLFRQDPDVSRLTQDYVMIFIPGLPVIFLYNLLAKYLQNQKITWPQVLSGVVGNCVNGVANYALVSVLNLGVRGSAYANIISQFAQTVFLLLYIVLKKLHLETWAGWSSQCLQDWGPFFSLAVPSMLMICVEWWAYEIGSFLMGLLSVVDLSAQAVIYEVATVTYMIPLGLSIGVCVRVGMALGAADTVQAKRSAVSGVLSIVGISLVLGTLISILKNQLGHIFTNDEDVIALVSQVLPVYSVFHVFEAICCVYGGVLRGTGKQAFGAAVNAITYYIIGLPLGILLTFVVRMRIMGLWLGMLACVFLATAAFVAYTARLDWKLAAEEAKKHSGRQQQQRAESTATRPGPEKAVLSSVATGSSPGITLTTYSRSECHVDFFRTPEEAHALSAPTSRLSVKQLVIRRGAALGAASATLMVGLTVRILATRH

[1] = fold uptake over empty vector, 2.5 μM, 1 min
[2] = uptake ratio MATE1-overexpressing vs empty-vector HEK293 cells, 2.5 μM, 1 min, mean
[3] = uptake ratio MATE2K-overexpressing vs empty-vector HEK293 cells, 2.5 μM, 1 min, mean
[4] = mean ratio of uptake in MATE1-overexpressing HEK293 cells vs empty vector, 2.5 μM, 1 min
[5] = mean ratio of uptake in MATE2K-overexpressing HEK293 cells vs empty vector, 2.5 μM, 1 min

NCCCCNCCCN [Spermidine]
MATE1 ratio (MATE1; [1]): 0.63 | MATE1 (MATE1; [2]): 0.63 | MATE2K ratio (MATE2K; [1]): 0.55 | MATE2 (MATE2K; [3]): 0.55

O=C(C[S+]([O-])Cc1ccco1)NC/C=C\COc1cc(CN2CCCCC2)ccn1 (centres unmarked) [Lafutidine]
MATE1 ratio (MATE1; [1]): 1.41 | MATE2K ratio (MATE2K; [1]): 1.48

O=C(O[C@H]1C[N+]2(CCCOc3ccccc3)CCC1CC2)C(O)(c1cccs1)c1cccs1 [Aclidinium (S), Aclidinium]
MATE1 ratio (MATE1; [1]): 5.36 | MATE1 (uptake ratio) (MATE1; [4]): 5.36 | MATE2K ratio (MATE2K; [1]): 1.64 | MATE2 (uptake ratio) (MATE2K; [5]): 1.64

CCN1CCC[C@H]1CNC(=O)c1cc(S(N)(=O)=O)ccc1OC [Sulpiride (S)]
MATE2 (MATE2K): 18.54

Br.Cc1ncc(C[n+]2cccc(CCO)c2C)c(N)n1.[Br-] [Pyrithiamine]
MATE1 ratio (MATE1; [1]): 20.40 | MATE1 (MATE1; [2]): 20.4 | MATE2K ratio (MATE2K; [1]): 7.32 | MATE2 (MATE2K; [3]): 7.32

CC(C)C[C@H](NC(=O)[C@H](Cc1ccccc1)NC(=O)c1cnccn1)B(O)O [Bortezomib]
MATE1 ratio (MATE1; [1]): 1.20 | MATE1 (uptake ratio) (MATE1; [4]): 1.2 | MATE2K ratio (MATE2K; [1]): 1.10 | MATE2 (uptake ratio) (MATE2K; [5]): 1.1

CCCCNc1cc(C(=O)O)cc(S(N)(=O)=O)c1Oc1ccccc1 [Bumetanide]
MATE1 ratio (MATE1; [1]): 2.02 | MATE1 (uptake ratio) (MATE1; [4]): 2.02 | substrate of MATE1 (MATE1; organic anions tested): substrates of MATE1 | MATE2K ratio (MATE2K; [1]): 1.18 | MATE2 (uptake ratio) (MATE2K; [5]): 1.18

CCCCCC(=O)OC(CC(=O)[O-])C[N+](C)(C)C (centres unmarked) [Hexanoylcarnitine]
MATE1 ratio (MATE1; [1]): 1.02 | MATE2K ratio (MATE2K; [1]): 1.01

NCCc1cccc(O)c1 [m-Tyramine]
MATE1 ratio (MATE1; [1]): 8.90 | MATE2K ratio (MATE2K; [1]): 1.31

CN(C)c1ccc2nc3ccc(=[N+](C)C)cc-3sc2c1 [Methylene blue]
MATE1 ratio (MATE1): 2.36 | MATE2K ratio (MATE2K): 1.55

CCCCNC(=N)NC(=N)N [Buformin]
MATE1 (uptake ratio) (MATE1): 24.8 | MATE1 ratio (MATE1): 24.80 | MATE2 (uptake ratio) (MATE2K): 2.37 | MATE2K ratio (MATE2K): 2.37

CC(C)NCC(O)COc1cccc2ccccc12 [Propranolol (S), Propranolol]
MATE1 (MATE1; [2]): 1.13 | MATE2 (MATE2K; [3]): 0.96

O=C(Nc1nc2cccc(-c3ccc(CN4CCS(=O)(=O)CC4)cc3)n2n1)C1CC1 [Filgotinib]
MATE1 ratio (MATE1; [1]): 0.89 | MATE2K ratio (MATE2K; [1]): 1.01

CC(C)c1cccc(C(C)C)c1O [Propofol]
MATE1 (MATE1): 0.64 | MATE1 ratio (MATE1): 0.64 | MATE2 (MATE2K): 0.8 | MATE2K ratio (MATE2K): 0.80

Oc1ccc2c3c1O[C@H]1[C@H](O)CC[C@@]4(O)[C@@H](C2)N(CC2CC2)CC[C@]314 [6-beta-Naltrexol]
MATE1 (uptake ratio) (MATE1): 1.2 | MATE1 ratio (MATE1): 1.20 | MATE2 (uptake ratio) (MATE2K): 1.2 | MATE2K ratio (MATE2K): 1.20

OC(c1ccccc1)(c1ccccc1)C12CC[N+](CCOCc3ccccc3)(CC1)CC2 [Umeclidinium]
MATE1 (MATE1; [2]): 4.54 | MATE2 (MATE2K; [3]): 1.67

COc1ccc([C@H](CN(C)C)C2(O)CCCCC2)cc1 [Venlafaxine (R)]
MATE1 (MATE1): 1.14 | MATE2 (MATE2K): 1.36

Cc1ccc(O)c(C(CCN(C(C)C)C(C)C)c2ccccc2)c1 (stereo in doubt) [Tolterodine (S)]
MATE1 (MATE1): 1.16

NCCS(=O)(=O)O [Taurine]
MATE2 (MATE2K; [3]): 1.2

NCCc1c[nH]c2ccccc12 [Tryptamine]
MATE1 (MATE1): 2.21

Cc1ccc(O)c([C@H](CCN(C(C)C)C(C)C)c2ccccc2)c1 [Tolterodine (R)]
MATE2 (MATE2K): 1.06

NC(=O)[C@@H]1CCCN1C(=O)[C@H](Cc1cnc[nH]1)NC(=O)[C@@H]1CCC(=O)N1 [Thyrotropin-Releasing-Hormon]
MATE1 (MATE1; [2]): 1.71

C#CCN(C)[C@H](C)Cc1ccccc1 [Selegiline (S), Selegiline]
MATE2 (MATE2K): 1.08

Cc1cc(C(C)(C)C)cc(C)c1CC1=NCCN1 [Xylometazoline]
MATE1 (MATE1): 1.55

NCCNCCNCCN [Triethylentetramine]
MATE1 (MATE1; [2]): 0.65

CCOc1ccccc1OCCN[C@H](C)Cc1ccc(OC)c(S(N)(=O)=O)c1 [Tamsulosin]
MATE1 (MATE1; [2]): 1.4
